Species on record: Rattus norvegicus
Assay: DrugMatrix - Regimen: Daily Repeat
Assay type: toxicity, organism-based, Sprague-Dawley
Parameters: regimen Daily Repeat, gender Male, age 6-8 weeks
Details: in vivo, po, route oral GAVAGE, vehicle .5 % CMC; for ABSOLUTE BASOPHIL / ABSOLUTE EOSINOPHIL / ABSOLUTE LYMPHOCYTE / ABSOLUTE MONOCYTE / ABSOLUTE SEGMENTED NEUTROPHIL / BASOPHIL / EOSINOPHIL / ERYTHROCYTE COUNT / HEMATOCRIT / HEMOGLOBIN / LEUKOCYTE COUNT / LYMPHOCYTE / MEAN CORPUSCULAR HEMOGLOBIN / MEAN CORPUSCULAR HEMOGLOBIN CONCENTRATION / MEAN CORPUSCULAR VOLUME / MONOCYTE / NEUTROPHIL / NUCLEATED RED BLOOD CELLS / PLATELET COUNT: tissue Blood; for ALANINE AMINOTRANSFERASE / ALBUMIN / ALKALINE PHOSPHATASE / ASPARTATE AMINOTRANSFERASE / BLOOD UREA NITROGEN / CARBON DIOXIDE / CHLORIDE / CHOLESTEROL / CREATINE PHOSPHOKINASE / CREATININE / GLUCOSE / LACTATE DEHYDROGENASE / LIPASE / PHOSPHORUS / POTASSIUM / SODIUM / TOTAL BILIRUBIN / TOTAL PROTEIN / URIC ACID: tissue Plasma
[1] = 0 mg/kg, 72 h, dose level Control, time 3 day
[2] = 0 mg/kg, 120 h, dose level Control, time 5 day
[3] = 10 mg/kg, 72 h, dose level Low, time 3 day

## CCOC(=O)[C@H](CCc1ccccc1)N[C@@H](C)C(=O)N1Cc2ccccc2C[C@H]1C(=O)O
[1]
  ABSOLUTE BASOPHIL: 0 CELLS/uL
  ABSOLUTE EOSINOPHIL: 0 CELLS/uL
  ABSOLUTE LYMPHOCYTE: 12191.17 CELLS/uL
  ABSOLUTE MONOCYTE: 183.17 CELLS/uL
  ABSOLUTE SEGMENTED NEUTROPHIL: 1192.33 CELLS/uL
  BASOPHIL: 0%
  EOSINOPHIL: 0%
  ERYTHROCYTE COUNT: 5.51 x10E6/uL
  HEMATOCRIT: 35.45%
  HEMOGLOBIN: 13.82 G/DL
  LEUKOCYTE COUNT: 13.57 x10E3/uL
  LYMPHOCYTE: 89.83%
  MEAN CORPUSCULAR HEMOGLOBIN: 25.1 pg
  MEAN CORPUSCULAR HEMOGLOBIN CONCENTRATION: 38.98 G/DL
  MEAN CORPUSCULAR VOLUME: 64.42 fL
  MONOCYTE: 1.33%
  NEUTROPHIL: 8.83%
  NUCLEATED RED BLOOD CELLS: 0 /100WBC
  PLATELET COUNT: 1118.17 x10E3/uL
  ALANINE AMINOTRANSFERASE: 55 u/L
  ALBUMIN: 4.15 G/DL
  ALKALINE PHOSPHATASE: 449.5 u/L
  ASPARTATE AMINOTRANSFERASE: 112.83 u/L
  BLOOD UREA NITROGEN: 17.33 mg/dL
  CARBON DIOXIDE: 29.5 mmol/L
  CHLORIDE: 101 MEQ/L
  CHOLESTEROL: 70 mg/dL
  CREATINE PHOSPHOKINASE: 1325.83 u/L
  CREATININE: 0.18 mg/dL
  GLUCOSE: 171.5 mg/dL
  LACTATE DEHYDROGENASE: 386 u/L
  LIPASE: 10 u/L
  PHOSPHORUS: 11.57 mg/dL
  POTASSIUM: 6.21 MEQ/L
  SODIUM: 141.65 MEQ/L
  TOTAL BILIRUBIN: 0.15 mg/dL
  TOTAL PROTEIN: 5.75 G/DL
  URIC ACID: 1.28 mg/dL
[2]
  ABSOLUTE BASOPHIL: 0 CELLS/uL
  ABSOLUTE EOSINOPHIL: 138.17 CELLS/uL
  ABSOLUTE LYMPHOCYTE: 13283.17 CELLS/uL
  ABSOLUTE MONOCYTE: 303.83 CELLS/uL
  ABSOLUTE SEGMENTED NEUTROPHIL: 1308.17 CELLS/uL
  BASOPHIL: 0%
  EOSINOPHIL: 1%
  ERYTHROCYTE COUNT: 5.32 x10E6/uL
  HEMATOCRIT: 33.8%
  HEMOGLOBIN: 13.63 G/DL
  LEUKOCYTE COUNT: 15.03 x10E3/uL
  LYMPHOCYTE: 88.33%
  MEAN CORPUSCULAR HEMOGLOBIN: 25.68 pg
  MEAN CORPUSCULAR HEMOGLOBIN CONCENTRATION: 40.35 G/DL
  MEAN CORPUSCULAR VOLUME: 63.67 fL
  MONOCYTE: 1.83%
  NEUTROPHIL: 8.83%
  NUCLEATED RED BLOOD CELLS: 0 /100WBC
  PLATELET COUNT: 1097.5 x10E3/uL
  ALANINE AMINOTRANSFERASE: 54.5 u/L
  ALBUMIN: 4.27 G/DL
  ALKALINE PHOSPHATASE: 337 u/L
  ASPARTATE AMINOTRANSFERASE: 94.67 u/L
  BLOOD UREA NITROGEN: 17 mg/dL
  CARBON DIOXIDE: 28.33 mmol/L
  CHLORIDE: 101.5 MEQ/L
  CHOLESTEROL: 71.33 mg/dL
  CREATINE PHOSPHOKINASE: 628.17 u/L
  CREATININE: 0.19 mg/dL
  GLUCOSE: 177.83 mg/dL
  LACTATE DEHYDROGENASE: 500.5 u/L
  LIPASE: 9.5 u/L
  PHOSPHORUS: 12.3 mg/dL
  POTASSIUM: 5.63 MEQ/L
  SODIUM: 143.03 MEQ/L
  TOTAL BILIRUBIN: 0.2 mg/dL
  TOTAL PROTEIN: 6.02 G/DL
  URIC ACID: 1.5 mg/dL
[3]
  ABSOLUTE BASOPHIL: 0 CELLS/uL
  ABSOLUTE EOSINOPHIL: 39 CELLS/uL
  ABSOLUTE LYMPHOCYTE: 11213 CELLS/uL
  ABSOLUTE MONOCYTE: 0 CELLS/uL
  ABSOLUTE SEGMENTED NEUTROPHIL: 1148 CELLS/uL
  BASOPHIL: 0%
  EOSINOPHIL: 0.33%
  ERYTHROCYTE COUNT: 5.3 x10E6/uL
  HEMATOCRIT: 34.07%
  HEMOGLOBIN: 13.93 G/DL
  LEUKOCYTE COUNT: 12.4 x10E3/uL
  LYMPHOCYTE: 90.33%
  MEAN CORPUSCULAR HEMOGLOBIN: 26.33 pg
  MEAN CORPUSCULAR HEMOGLOBIN CONCENTRATION: 40.9 G/DL
  MEAN CORPUSCULAR VOLUME: 64.37 fL
  MONOCYTE: 0%
  NEUTROPHIL: 9.33%
  NUCLEATED RED BLOOD CELLS: 0 /100WBC
  PLATELET COUNT: 1446.33 x10E3/uL
